Data: a melting point compilation (Tetko et al.; mined from patent text by program, amines drawn as free bases though some values may be those of a salt)

Structure (SMILES) | melting point [°C]
Cc1ccc(CNc2cccc3c2CN(C2CCC(=O)NC2=O)C3=O)o1 (stereo unspecified) | 242 to 244
O=C1C(=O)c2ccccc2C2=C1SCC1(CCN(CC(O)COc3ccc(F)cc3)CC1)O2 (stereo unspecified) | 174 to 175
CCOC(=O)c1cn(C)c2cc(F)ccc2c1=O | 164 to 166
O=C(O)Cc1cc(C(=O)c2ccccc2)ccc1O | 205
O=c1ccc2c(CO)nccc2[nH]1 | 294 to 300
CC(C)c1nsc(N=C(C#N)N(C)C)c1C#N | 78 to 79
COC(=O)CSc1nc(Oc2ccc(N3CCNCC3)cc2)ncc1[N+](=O)[O-] | 193 to 195
Fc1cc2c(cc1CN1CCOCC1)Cc1c(-c3ccsc3)n[nH]c1-2 | 222
CCOC(=O)c1nc2n(c(=O)c1O)CCOC2 | 172 to 174
CCCCOCCOc1ccc(-c2ccc3c(c2)C=C(C(=O)O)CCN3CC2CCC2)cc1 | 110 to 112
CCOP(=O)(/C=C/c1ccc2cc(NC(=O)C(NC(=O)OC(C)(C)C)C(C)(C)C)cc(-c3cccc4ccccc34)c2n1)OCC (stereo unspecified) | 249 to 250
c1ccc(N=C2CCCc3ccccc32)cc1 | 53
CCc1nnc2c(Cl)nc3ccc(Cl)cc3n12 | > 250
NS(=O)(=O)c1cc(C(=O)O)cc(S)c1Oc1ccccc1 | 225
Nc1ncc(I)cc1[N+](=O)[O-] | 213 to 215
COc1cc2c(c([N+](=O)[O-])c1)NCCC2=O | 161 to 162
CN(C(=O)CBr)c1ccc(Cl)cc1C(=O)c1ccccc1Cl | 86
Oc1ccc(Nc2ncc3ncc(Cl)cc3n2)cc1 | 232 to 234
CC(C)c1ccc(N(Cc2cnn(Cc3cccs3)c2)C(=O)C2CCCc3c(O)cccc32)cn1 (stereo unspecified) | 125 to 129
COc1cc2ncnc(N3CCN(C(=O)Nc4ccc(S(C)(=O)=O)cc4)CC3)c2cc1OC | 266 to 269
CCC(C)(C)c1ccc(O)c(C(=O)Nc2ccc([N+](=O)[O-])cc2C)c1 | 150 to 151
NC(=O)CN1C(=O)C[C@@H]2CCC[C@@H]21 (relative stereo) | 142 to 144
CCC(=O)NC[C@H]1CN(c2ccc3c(c2)C[C@@H](C)N3C(=O)OCc2ccccc2)C(=O)O1 | 181 to 183

Structure (SMILES) | melting point [°C]
CN1CCC(c2ccc(Cl)c(Cl)c2)C(CO)C1 (stereo unspecified) | 109 to 111
Cc1nc(C)c(Cl)c(NCc2nccc(SCCCN3CCNCC3)c2C)n1 | 144 to 145
CCOC(=O)[C@H](Cc1ccc(-c2c(OC)cc(COS(C)(=O)=O)cc2OC)cc1)NC(=O)c1c(Cl)cccc1Cl | 109
O=C1NCc2cnc(Nc3ccc(N4CCC(CCCO)CC4)cc3)nc2N1C1CCCC1 | > 230
C[C@H]1CC[C@H]2C(C)(C)[C@@H](O)CC[C@]23Oc2c(c(O)cc4c2CN(C)C4=O)C[C@]13C | 205 to 210
CC(C)(C)OC(=O)Oc1nc2c(N)ncnc2n1Cc1ccccc1 | 287 to 289
COc1ccc(-c2cc(F)cc3c2NC(CN)CO3)c(C)c1 (stereo unspecified) | 82
CSc1nnc(SCC2=C(C(=O)O)N3C(=O)C(NC(=O)Cc4csc(=O)s4)C3SC2)s1 (stereo unspecified) | 160
Cc1c(-c2ccc(OS(=O)(=O)NN(C)C)cc2)[nH]c2nccnc12 | 188
CCC1(CC)C(=O)N(C(C)(C)CC(C)(C)C)CC(C)(C)N1OC(C)(C)C#N | 49 to 53
CSC1=N[C@@H](c2ccccc2)[C@H](c2ccccc2)N1 (relative stereo) | 132 to 134
Cc1nc2c(OCCCc3ccccc3)cccn2c1CC#N | 143 to 145
O=C1C2C(C(=O)N1Cc1ccccc1)C2[N+](=O)[O-] (stereo unspecified) | 108 to 109
CC1C(=O)N(c2ccccc2)C(=S)N1c1ccc(Oc2ccc(O)cc2)cc1 (stereo unspecified) | 106 to 108
Oc1ccc2nc(Cc3ccc(Cl)cc3)oc2c1 | 167 to 168
Cc1ccc(CCc2cc(Br)c3nc(N)sc3c2)nc1 | 216 to 218
COc1cc(COc2nn(C)cc2C(C)O)ccc1OCc1nc(-c2ccccc2)oc1C (stereo unspecified) | 94 to 95
CCOC(=O)CC1CCc2cc3ccccc3n2C1 (stereo unspecified) | 66 to 68
O=C(NCCO)c1ccc(-c2ccc3nnn(Cc4ccc5ncccc5c4)c3n2)cc1 | > 260
C=C(c1ccc(N(C)C)cc1)c1ccc(N2CCCC2)cc1 | 149 to 150
O=c1ccn(-c2c(O)c3ccc(Cl)cc3[nH]c2=O)cc1 | 340
CC(=O)Nc1c(Cl)cnn(C)c1=O | 147 to 148
COc1ccc2c(c1)CCN(C=O)C2c1cc(Cl)nc(Cl)c1 (single isomer, unassigned; (-)) | 156 to 158

The next lines start with the values.

melting point [°C] | Structure (SMILES)
108 to 110 | Cc1cc(SCCc2ccc3sc(-c4ccc(C(F)(F)F)cc4)nc3c2)ccc1CCC(=O)O
165 to 166 | CCCc1cc2cc(OCC(=O)O)c(Cl)c(Cl)c2s1
119 to 120 | Cc1cc(C)cc(NC(=O)Cc2ccc(OC3(C(=O)N[C@H](CC(C)C)C(=O)O)CCCC3)cc2)c1
204 | CC(C)(C)C1=C(C#N)C(c2cccc3nonc23)c2c[nH]nc2N1 (stereo unspecified)
162 to 164 | Clc1ccc2c(c1)OCc1cccnc1C2N1CCNCC1 (stereo unspecified)
194 to 196 | CCCCC1(O)CCN(CC23CC(c4ccccc42)c2ccccc23)CC1
49 to 51 | O=C(OCc1ccccc1)N1CCN(c2ccccc2)CC1
211 to 212 | COC(=O)NC1=NC(c2ccc(F)cc2)CCN1 (stereo unspecified)
251 to 253 | O=C(O)c1cc(=O)c2c(o1)-c1ccccc1SC2
201 | CCOC(=O)c1ccccc1N(CC(=O)N(C)c1ccccc1)C(=O)CNC(=O)Nc1cccc(C)c1
154 to 160 | CC(C)CN(C=NS(=O)(=O)c1c(Cl)nc2ccc(C3CC3)nn12)CC(C)C
87 to 88 | C=CCc1cc(Nc2ccn(-c3ccccc3)n2)cc(CC=C)c1O
166 to 167 | CC(C)(C)n1cc(-c2ccc(I)cc2)c(C#N)c1N
98.6 | COC(=O)c1cc(-c2ccc(C)cc2)n(Cc2ccc(Cl)c(Cl)c2)n1
203 to 204 | CC(=O)c1ccc(NS(C)(=O)=O)c(NC(=O)c2ccc(F)cc2F)c1
82 to 84 | CCOP(=O)(/C=C/c1cn(CC)nc1OCc1ccc(OCc2nc(-c3ccco3)oc2C)c(OC)c1)OCC
162 | COc1cc2c(cc1OC)CN(CCCSc1ccc(NC(=O)c3cccc4c(=O)c5cccc(F)c5[nH]c34)cc1)CC2
119 to 121 | C=CCON=C(C(=O)O)C1=CSCCO1
120 to 121 | COC(=O)CCC(=O)c1ccc(-c2ccc(Cl)c(Cl)c2)cc1
192 to 195 | COc1ccc(-c2cc(=Nc3c(C)cc(C)cc3C)n(C)c(N)n2)cc1OC
116 | CN1CCCCC1CCc1ccccc1NC(=O)c1ccc(F)cc1 (stereo unspecified)
84 to 86 | CCC(C)C(C)CNc1cccc(-c2ccnc3c(C(=O)c4cccs4)cnn23)c1 (stereo unspecified)
220 to 223 | CS(=O)(=O)N1CCC(Nc2ncc3cc(Cc4ccccn4)c(=O)n(C4CCCC4)c3n2)CC1
115 to 117 | Nc1ccc(S(=O)(=O)CCO)cc1O
65 | COC(=O)c1ccc(C(O)c2c(C)c3cc(C(F)(F)F)ccc3n2S(=O)(=O)c2cccc(C(C)(C)C)c2)cc1 (stereo unspecified)
111 to 113 | Cc1cc(NC(=O)CN2CCN(c3ncccc3C#N)CC2)ccc1F
268 to 270 | O=C1Nc2cccnc2Oc2ccccc21
185 to 186 | CCCOc1ccc(S(=O)(=O)N2CCNCC2)cc1-c1nc2c(CCC)nn(C)c2c(=O)[nH]1

melting point [°C] | Structure (SMILES)
177 to 179 | N#Cc1ccccc1S(=O)(=O)c1ccc(N)cc1
167 to 171 | CC(C)(C(=O)O)c1ccc(Br)c([N+](=O)[O-])c1
78 to 79 | Nc1nc(Cl)cc(NCC2CC2(Cl)Cl)n1 (stereo unspecified)
265 to 268 | CNC(=O)c1cc2c(nc(C)n2C)c2c1C[C@@H](O)[C@@H](c1ccccc1)N2
95 to 96 | CC(C)OC(=O)OC1Oc2ccc(OS(=O)(=O)N(C)C)cc2C1(C)C (stereo unspecified)
178 to 182 | c1ccc(COc2ccc3[nH]c(-c4ccc[nH]4)cc3c2)cc1
49 to 50 | CCCc1cc(Cl)c2occ(C)c2c1O
124 to 125 | CCOC(=O)/C(=N\OC(C)(C)C(=O)OC(C)(C)C)c1nc(C(c2ccccc2)(c2ccccc2)c2ccccc2)sc1N
248 to 249 | COC(=O)C1=C(C)NC(C)=C(c2nc(C)no2)C1c1cccc(N)c1 (stereo unspecified)
103 to 105 | Clc1ccc(-c2ccc(OCCCBr)cc2)cc1
152 | CNC(=O)N1CCc2cc(S(=O)(=O)N(C)OC)ccc21
60 to 62 | CCOC(=O)c1ncc2c(c1COC)c1c(OS(=O)(=O)C(F)(F)F)cccc1n2S(=O)(=O)C(F)(F)F
115 to 122 | CNS(=O)(=O)c1ccsc1C(=O)OC
350 to 355 | O=C1c2c(F)c(F)c(F)c(F)c2C(=O)N1c1c[nH]c(=O)[nH]c1=O
141 to 143 | O=C(c1ccccc1)N(c1ccccc1)c1ccc(OCc2ccccc2)cc1
253 | COc1ccc(-c2ccc(C(=O)O)cc2)cc1F
144 to 147 | O=C(NCc1ccco1)c1ccc(-c2ccc3nnn(Cc4ccc5ncccc5c4)c3n2)cc1F
173 to 174 | CC(C)Cn1cc(F)c(=O)[nH]c1=O
140 to 142 | Nc1c(Cl)cc(C(O)CNCCCCCOCCc2ccccn2)cc1Cl (stereo unspecified)
135 to 137 | Cc1[nH]c2ccccc2c1CCCN1CCC(C(=O)c2ccc(F)cc2)CC1
199 to 201 | Cc1cc(O)c(C)c2sc(N)nc12
162 | Cc1cccc(NC(=O)c2ccn3c2CSC3c2cccnc2)n1 (stereo unspecified)
95 to 96.5 | CCN(CC)Cc1cc(C(=O)c2ccc(Cl)cc2)cc(C(C)(C)C)c1O
60 to 63 | N#CSCC(Cl)=C(Cl)CCl
138 to 139 | CCN1C(=O)C(C)(C)C(=O)N(C)c2cc(CN(CCn3ccc4oc(C)cc4c3=O)Cc3cc(C)n(C)n3)ccc21
197 to 198 | COC(=O)c1ccccc1S(=O)(=O)NC(=O)Nc1nc(C)c2cc(C)oc2n1
136 to 138 | Cc1c(-c2ccncc2)oc2c1C(=O)CCC2
